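These data come from cells grown in 96-well plates and exposed to compound for 48 hours at five concentrations. Definition used: TGI = concentration required for complete inhibition of growth.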
What was measured:
Assay in all cases: NCI tumour cell line growth inhibition, 48 h
P388 leukemia = system: P388 leukemia
SN12K1 renal = system: SN12K1 renal
P388/ADR leukemia = system: P388/ADR leukemia
M19-MEL melanoma = system: M19-MEL melanoma
DLD-1 colon = system: DLD-1 colon
SNB-78 CNS = system: SNB-78 CNS
LXFL 529 NSCLC = system: LXFL 529 NSCLC

Compound | TGI (P388 leukemia) [µM] | TGI (SN12K1 renal) [µM] | TGI (P388/ADR leukemia) [µM] | TGI (M19-MEL melanoma) [µM] | TGI (DLD-1 colon) [µM] | TGI (SNB-78 CNS) [µM] | TGI (LXFL 529 NSCLC) [µM]
CCOC(=O)c1ccc(N[C@@H]2c3cc4c(cc3C(c3cc(OC)c(O)c(OC)c3)[C@H]3C(=O)OCC32)OCO4)cc1O (stereo not given in full) | 0.902 | 11.3 | 0.324 | > 55.1 | 4.58 | > 100 | 
CC1CC2=C(S(=O)(=O)c3ccccc3)CC(S(=O)(=O)c3ccccc3)(S(=O)(=O)c3ccccc3)CC21 (stereo not given) |  |  |  |  | > 100 |  | 
Clc1ccc(C[P+](c2ccccc2)(c2ccccc2)c2ccccc2)c(Cl)c1 |  |  |  | 11.5 |  | 11 | 12.5
